Laboratory results from publication PMC7570966 (Molecules, 2020).
pIC50: −log10 of the molar value. Read-outs that look alike come from different tables or passages of the source.

How the values were obtained:
[1] = target: T1, acetylcholinesterase (AChE) (Electrophorus electricus, UniProt O42275); assay: biochemical; settings: Ellman's method, pH 8, triplicate
T1 construct: purchased Sigma–Aldrich (St. Louis, MO, USA)
Procedure: AChE inhibitory activities of the synthesized flavone derivatives were determined by Ellman’s method [45]. […] The assay was performed as described earlier [46] in 96-well microtiter plates using the EMR-500 ELISA system (Labomed, Los Angeles, CA, USA). Each well of the plate contained a mixture of sodium phosphate buffer pH 8, sample (studied compounds or reference), acetylcholinesterase, ATCI, and 5,5′-dithio-bisnitrobenzoic acid (DTNB). The absorbance was recorded at 405 nm. All samples were assayed in triplicate.

β-secretase (BACE-1) = target: T2, β-secretase (BACE-1) (Homo sapiens, UniProt P56817); assay: biochemical; settings: for IC50: observed, read-out: BACE-1 Obs. pIC50 (converted)
T2 construct: purchased Sigma–Aldrich
Source text: A fluorescence β-Secretase (BACE-1) Activity Detection Kit was purchased from Sigma–Aldrich and used to determine the effect of the synthesized flavone derivatives on β-secretase activity. […] The enzyme solution was reacted with the substrate (7-methoxycumarin-4-acetyl-(Asn670, Lue671)-amyloid β/A4 precursor protein 770 fragment 667–676-(2,4-dinitrophenyl))Lys-Arg-Arg amide trifluoroacetate salt and sulfated polysaccharide samples in a fluorescence assay buffer in different wells. Baseline readings were measure immediately on an F-7000 fluorescence spectrophotometer (Hitachi, Tokyo, Japan; excitation: 320 nm; emission: 405 nm) and repeated after 2 h incubation at 37 °C.

[2] = fluorescence kit, 2 h incubation at 37 °C, read-out: BACE-1 IC50

T2 sequence (P56817 46-501): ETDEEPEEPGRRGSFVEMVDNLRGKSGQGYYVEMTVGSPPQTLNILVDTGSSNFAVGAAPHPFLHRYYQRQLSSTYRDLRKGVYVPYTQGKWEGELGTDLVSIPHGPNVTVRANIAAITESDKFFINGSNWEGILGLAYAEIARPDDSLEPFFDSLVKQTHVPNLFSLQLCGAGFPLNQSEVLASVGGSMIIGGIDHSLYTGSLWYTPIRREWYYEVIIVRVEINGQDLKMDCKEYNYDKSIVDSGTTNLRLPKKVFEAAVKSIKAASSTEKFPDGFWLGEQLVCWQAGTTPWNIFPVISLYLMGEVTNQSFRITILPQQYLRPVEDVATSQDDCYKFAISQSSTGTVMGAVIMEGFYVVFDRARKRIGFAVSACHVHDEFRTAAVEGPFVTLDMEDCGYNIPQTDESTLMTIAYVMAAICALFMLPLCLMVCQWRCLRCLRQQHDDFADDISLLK
T1 sequence (O42275 24-633): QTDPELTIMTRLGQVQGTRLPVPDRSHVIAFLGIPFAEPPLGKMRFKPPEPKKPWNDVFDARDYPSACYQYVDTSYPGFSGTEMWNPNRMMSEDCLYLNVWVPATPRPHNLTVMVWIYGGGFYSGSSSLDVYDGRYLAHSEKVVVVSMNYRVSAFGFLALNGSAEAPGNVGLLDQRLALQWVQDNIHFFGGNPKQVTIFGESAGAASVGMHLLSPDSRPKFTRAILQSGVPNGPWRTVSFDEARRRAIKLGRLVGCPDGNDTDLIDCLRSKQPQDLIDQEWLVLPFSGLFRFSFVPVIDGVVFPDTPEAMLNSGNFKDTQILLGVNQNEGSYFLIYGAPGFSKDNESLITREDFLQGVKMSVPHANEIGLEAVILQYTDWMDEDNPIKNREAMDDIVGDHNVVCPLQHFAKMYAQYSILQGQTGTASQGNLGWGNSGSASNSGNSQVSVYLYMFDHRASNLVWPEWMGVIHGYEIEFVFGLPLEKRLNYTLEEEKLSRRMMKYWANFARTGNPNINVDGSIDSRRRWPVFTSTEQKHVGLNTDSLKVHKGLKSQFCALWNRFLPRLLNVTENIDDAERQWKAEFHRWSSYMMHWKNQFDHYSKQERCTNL

Structure (SMILES) | pIC50 [1] | pIC50 (β-secretase (BACE-1); [2]) | IC50 (β-secretase (BACE-1); -logIC50) [µM] | pIC50 (β-secretase (BACE-1); BACE-1 IC50, fluorescence kit, 2 h incubation at 37 °C) | pIC50 (β-secretase (BACE-1); BACE-1 Obs. pIC50, observed, -logIC50)
O=c1cc(-c2ccccc2)oc2cc(O)c(O)c(O)c12 [Compound B1, Baicalein] | 4.43 |  |  |  | 
COc1cc2oc(-c3ccccc3)cc(=O)c2c(O)c1OC [Compound B2, 5-Hydroxy-6,7-dimethoxyflavone] | 4.59 | 4.36 | 43.7 |  | 
CCOc1cc2oc(-c3ccccc3)cc(=O)c2c(O)c1OCC [Compound B3, 6,7-Diethoxy-5-hydroxyflavone] | 4.52 | 5.40 | 3.98 |  | 
C=CCOc1cc2oc(-c3ccccc3)cc(=O)c2c(O)c1OCC=C [Compound B4, 6,7-Diallyloxy-5-hydroxyflavone] | 4.29 | 4.15 | 70.8 |  | 
C=CCOc1cc2oc(-c3ccccc3)cc(=O)c2c(OCC=C)c1OCC=C [Compound B5, 5,6,7-Triallyloxyflavone] | 3.72 | 4.77 | 17 |  | 
O=c1cc(-c2ccccc2)oc2cc(OCc3ccccc3)c(OCc3ccccc3)c(OCc3ccccc3)c12 [Compound B6, 5,6,7-Tribenzyloxyflavone] | 4.10 | 4.90 | 12.6 |  | 
CC(=O)Oc1cc2oc(-c3ccccc3)cc(=O)c2c(OC(C)=O)c1OC(C)=O [Compound B7, 5,6,7-Triacetoxyflavone] | 4.29 | 4.50 | 31.6 |  | 
CCC(=O)Oc1cc2oc(-c3ccccc3)cc(=O)c2c(OC(=O)CC)c1OC(=O)CC [Compound B8, 5,6,7-Tripropionoxyflavone] | 4.18 | 4.65 | 22.4 |  | 
COc1cc(O)c2c(=O)cc(-c3ccc(OC)c(OC)c3)oc2c1 [Compound D2, 5-Hydroxy-3’,4’,7-trimethoxyflavone] | 4.06 | 5.67 | 2.14 |  | 
CCOc1cc(O)c2c(=O)cc(-c3ccc(OC)c(OCC)c3)oc2c1 [Compound D3, 3’,7-Diethoxy-5-hydroxy-4’-methoxyflavone] | 3.89 | 5.50 | 3.16 |  | 
C=CCOc1cc(O)c2c(=O)cc(-c3ccc(OC)c(OCC=C)c3)oc2c1 [Compound D4, 3’,7-Diallyloxy-5-hydroxy-4’-methoxyflavone] | 3.82 | 5.44 | 3.63 |  | 
COc1cc(OC)c2c(=O)cc(-c3ccc(OC)c(OC)c3)oc2c1 [Compound D5, 3’,4’,5,7-Tetramethoxyflavone] | 4.13 |  |  | 5.78 | 5.78
CCOc1cc(OCC)c2c(=O)cc(-c3ccc(OC)c(OCC)c3)oc2c1 [Compound D6, 3′,5,7-Triethoxy-4′-methoxyflavone] | 4.12 | 5.80 | 1.58 |  | 
COc1ccc(-c2cc(=O)c3c(O)cc(OC(=O)c4ccccc4)cc3o2)cc1OC(=O)c1ccccc1 [Compound D7, 3’,7-Dibenzoyloxy-5-hydroxy-4’-methoxyflavone] | 3.47 | 5.54 | 2.88 |  | 
